Experimental data published in a compilation of properties of binary mixtures (doi:10.1021/acs.jced.0c00801).

Assay: xn = mol fraction of the nth substance listed
Conditions: 101 kPa

CC[n+]1ccn(C)c1.N#C[S-] + CCO
Conditions | speed of sound, 283.15 K [m/s] | speed of sound, 293.15 K [m/s] | speed of sound, 303.15 K [m/s] | speed of sound, 313.15 K [m/s] | speed of sound, 323.15 K [m/s] | viscosity, 283.15 K [mPa·s] | viscosity, 293.15 K [mPa·s] | viscosity, 303.15 K [mPa·s] | viscosity, 313.15 K [mPa·s] | viscosity, 323.15 K [mPa·s]
x1 = 0.0504 | 1281.9 | 1249.4 | – | – | 1155 | 1.93 | 1.58 | – | – | 0.94
x1 = 0.1001 | 1345.1 | 1314.4 | 1284.3 | 1254.6 | 1225.4 | 2.34 | 1.91 | 1.59 | 1.34 | 1.14
x1 = 0.2012 | 1466.4 | 1438.1 | – | 1382.8 | 1355.8 | 3.49 | 2.88 | – | 1.93 | 1.64
x1 = 0.3003 | 1560.9 | 1534 | 1507.4 | 1481.3 | 1455.6 | 4.8 | 3.84 | 3.14 | 2.63 | 2.24
x1 = 0.3945 | 1641 | 1614.9 | 1589.2 | 1563.9 | 1539.2 | 6.72 | 5.3 | 4.29 | 3.56 | 3
x1 = 0.5007 | 1711 | 1685.5 | 1660.4 | 1635.8 | 1611.5 | 9.41 | 7.24 | 5.73 | 4.67 | 3.91
x1 = 0.6016 | 1768.2 | 1743.3 | 1718.9 | – | 1671.5 | 12.82 | 9.63 | 7.51 | – | 4.97
x1 = 0.7018 | 1805.7 | 1781.1 | 1757 | – | – | 16.95 | 12.52 | 9.54 | – | –
x1 = 0.8045 | – | 1813.9 | 1790 | 1766.5 | 1743.5 | – | 16.42 | 12.35 | 9.58 | 7.66
x1 = 0.8971 | – | – | 1813.9 | – | 1767.8 | – | – | 15.08 | – | 9.05
x1 = 0.951 | 1875.9 | 1851.7 | – | 1804.6 | – | 34.19 | 23.87 | – | 13 | –
x1 = 1 | 1887.6 | 1863.4 | 1839.7 | – | 1793.9 | 38.41 | 26.31 | 19.03 | – | 11.1

CCO + CC[n+]1ccn(C)c1.N#C[S-]
x2 = 0
Conditions | speed of sound [m/s] | viscosity [mPa·s]
283.15 K | 1194.7 | 1.44
313.15 K | 1092.2 | 0.83
323.15 K | 1059.1 | 0.7
